In publication PMC8571951, “An activity‐based bioprobe differentiates a novel small molecule inhibitor from a LOXL2 antibody and provides renewed promise for anti‐fibrotic therapeutic strategies” (Clinical and Translational Medicine, 2021):

Legend:
Type in all cases: biochemical
[1] = target: T1, rh LOXL2 (Homo sapiens, UniProt Q9Y4K0); experiment: Jump dilution assay, rh LOXL2
T1 sequence (Q9Y4K0 26-774): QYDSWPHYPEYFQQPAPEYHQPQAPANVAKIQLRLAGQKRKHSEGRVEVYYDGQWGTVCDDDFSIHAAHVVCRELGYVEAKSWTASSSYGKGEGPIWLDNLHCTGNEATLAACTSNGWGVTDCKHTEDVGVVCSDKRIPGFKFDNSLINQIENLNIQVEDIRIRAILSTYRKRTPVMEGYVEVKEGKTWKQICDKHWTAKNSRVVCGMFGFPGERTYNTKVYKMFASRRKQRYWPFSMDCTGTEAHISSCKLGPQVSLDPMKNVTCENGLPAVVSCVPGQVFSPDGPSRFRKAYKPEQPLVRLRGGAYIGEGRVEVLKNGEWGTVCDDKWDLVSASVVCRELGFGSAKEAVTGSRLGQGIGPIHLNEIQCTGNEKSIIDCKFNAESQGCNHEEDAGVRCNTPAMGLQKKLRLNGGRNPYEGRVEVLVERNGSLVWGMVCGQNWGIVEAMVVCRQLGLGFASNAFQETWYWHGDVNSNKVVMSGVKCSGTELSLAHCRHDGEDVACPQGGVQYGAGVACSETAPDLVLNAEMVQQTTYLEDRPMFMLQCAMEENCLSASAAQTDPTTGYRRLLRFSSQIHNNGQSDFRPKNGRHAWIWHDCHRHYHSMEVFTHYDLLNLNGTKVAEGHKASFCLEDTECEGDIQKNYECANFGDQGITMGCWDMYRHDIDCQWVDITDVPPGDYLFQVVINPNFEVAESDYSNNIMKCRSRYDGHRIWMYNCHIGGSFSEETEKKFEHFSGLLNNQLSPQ
From the text: (§1) FIGURE 1 Characteristics of the activity‐based probe (ABP) PXS‐5878. (A) Chemical structure of PXS‐5878, with functional subunits denoted with different colours. The fluoroallylamine moiety (blue) was designed to interact with the lysine tyrosylquinone (LTQ) co‐factor within the lysyl oxidase active sites. An extended linker (green) was incorporated to provide optimal separation between the reactive functional group and the tag, avoiding unfavourable steric hindrance. Biotin was selected as a tag, with higher sensitivity found to be achieved using a double tag (red), resulting in PXS‐5878 as the preferred ABP. (B) Concentration‐dependent inhibition of recombinant human (rh) lysyl oxidase‐like 1‐4 (LOXL1‐4) and native bovine LOX in a standard Amplex Red assay with 30 min pre‐incubation; n = 3–4 independent experiments, standard error of mean (SEM). Native bovine LOX was used as a surrogate for human LOX as both enzymes have similar pharmacology for fluoroallylamines.[2], [9] (C) Irreversible nature of PXS‐5878 enzyme inhibition confirmed using a jump dilution assay. Enzyme (rh LOXL1, rh LOXL2 or LOXL3) was pre‐incubated with 10 × IC50 of PXS‐5878 for 30 min, then diluted 100x and remaining activity assessed by Amplex Red assay. […] Each value is an average of three experiments. (D) Schematic representation of the assay development to detect lysyl oxidase activity by PXS‐5878 using a direct enzyme‐linked assay with lysyl oxidases as the target analyte. HRP: horseradish peroxidase; TMB: 3,3′,5,5′‐tetramethylbenzidine, a chromogenic substrate. […]
For fluoroallylamine-based inhibitors, replacement of fluorine with hydrogen (leading to the corresponding des-fluoro structures) results in a drop in potency and a switch from irreversible to reversible inhibition. […] (B) For PXS-5878, removal of the fluoro moiety in a simplified analogue results in a significant drop in potency for LOXL2, meaning (ir)reversibility cannot be accurately measured.

[2] = target: T2, rh LOXL1 (Homo sapiens, UniProt Q08397); experiment: Jump dilution assay, rh LOXL1; conditions: 10 × IC50 for 30 min, diluted 100x
T2 sequence (Q08397 96-574): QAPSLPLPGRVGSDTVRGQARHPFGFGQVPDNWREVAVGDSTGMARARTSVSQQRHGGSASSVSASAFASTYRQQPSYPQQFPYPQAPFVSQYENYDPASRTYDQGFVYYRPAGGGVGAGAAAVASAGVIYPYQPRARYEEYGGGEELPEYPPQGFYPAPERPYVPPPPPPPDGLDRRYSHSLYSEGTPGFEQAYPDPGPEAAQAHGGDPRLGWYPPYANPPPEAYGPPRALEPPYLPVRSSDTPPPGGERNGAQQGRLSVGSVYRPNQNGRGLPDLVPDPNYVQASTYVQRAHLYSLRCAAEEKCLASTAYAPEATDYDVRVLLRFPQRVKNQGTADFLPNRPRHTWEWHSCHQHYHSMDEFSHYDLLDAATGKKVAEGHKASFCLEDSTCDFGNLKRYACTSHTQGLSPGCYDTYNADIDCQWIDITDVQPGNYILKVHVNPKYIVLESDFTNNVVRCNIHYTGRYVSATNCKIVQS
From the text: as §1, with “experiments.” for “experiments. (D) Schematic representation of the assay development to detect lysyl oxidase activity by PXS‐5878 using a direct enzyme‐linked assay with lysyl oxidases as the target analyte. HRP: horseradish peroxidase; TMB: 3,3′,5,5′‐tetramethylbenzidine, a chromogenic substrate.”

[3] = target: T3, LOXL3 (Homo sapiens, UniProt P58215); experiment: Jump dilution assay, LOXL3; conditions: 10 × IC50 for 30 min, diluted 100x
T3 sequence (P58215 26-753): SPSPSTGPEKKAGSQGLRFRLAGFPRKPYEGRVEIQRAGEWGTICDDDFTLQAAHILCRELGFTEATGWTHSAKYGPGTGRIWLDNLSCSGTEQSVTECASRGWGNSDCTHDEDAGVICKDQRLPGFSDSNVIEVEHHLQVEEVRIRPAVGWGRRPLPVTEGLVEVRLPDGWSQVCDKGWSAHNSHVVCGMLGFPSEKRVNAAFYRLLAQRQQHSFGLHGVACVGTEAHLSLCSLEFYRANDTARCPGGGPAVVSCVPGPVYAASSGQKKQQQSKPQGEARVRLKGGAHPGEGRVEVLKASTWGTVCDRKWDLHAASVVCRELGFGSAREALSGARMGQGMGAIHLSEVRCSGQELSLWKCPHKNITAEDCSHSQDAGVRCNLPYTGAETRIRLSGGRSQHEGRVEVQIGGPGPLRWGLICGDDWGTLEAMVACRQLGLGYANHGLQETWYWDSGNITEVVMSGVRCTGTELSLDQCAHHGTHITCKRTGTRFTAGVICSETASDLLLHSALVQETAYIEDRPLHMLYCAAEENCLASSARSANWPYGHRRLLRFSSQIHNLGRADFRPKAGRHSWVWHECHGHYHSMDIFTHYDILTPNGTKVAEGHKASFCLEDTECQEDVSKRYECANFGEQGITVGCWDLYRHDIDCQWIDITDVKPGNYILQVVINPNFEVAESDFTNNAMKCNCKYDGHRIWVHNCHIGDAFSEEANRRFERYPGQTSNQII
From the text: as §1, with “experiments.” for “experiments. (D) Schematic representation of the assay development to detect lysyl oxidase activity by PXS‐5878 using a direct enzyme‐linked assay with lysyl oxidases as the target analyte. HRP: horseradish peroxidase; TMB: 3,3′,5,5′‐tetramethylbenzidine, a chromogenic substrate.”

| Mode of inhibition (reversible/irreversible) of LOXL2 [1] | Recovery of enzyme activity after jump dilution [2] | Recovery of enzyme activity after jump dilution ([1]; rh LOXL2, 10 × IC50 for 30 min, diluted 100x) | Recovery of enzyme activity after jump dilution [3] | Structure (SMILES) |
| --- | --- | --- | --- | --- |
| reversible inhibitor |  |  |  | CC(C)c1c(Cc2ccc(S(C)(=O)=O)nc2)c2ncccc2n1CC=CCN [des‐fluoro‐PXS‐5338] |
|  | Little to no recovery in enzyme activity | Little to no recovery in enzyme activity | Little to no recovery in enzyme activity | NC/C=C(\F)CS(=O)(=O)c1cccc(Cn2cc(-c3cc(OCCCc4cn(CCCCC[C@@H]5SC[C@@H]6NC(=O)N[C@@H]65)nn4)cc(OCCCc4cn(CCCCC[C@@H]5SC[C@@H]6NC(=O)N[C@@H]65)nn4)c3)nn2)c1 [PXS‐5878] |
